# Experimental data from patent publication US12226441B2, “Composition for inhibiting intestinal permeability, treating leaky gut related diseases and/or preventing leaky gut related diseases” (priority 2020, dated 2025).
# Tests used:
# [1] = system: mice with circadian disruption; test: circadian disruption (insomnia) animal model, brainwave sleep cycle parameters; assay type: in vivo, C57BL/6 male mice; settings: positive control, light-dark cycle 7 hours:7 hours, 2.5 mg/kg orally, Day 4, vs negative control
# Method: The animals used in this experiment were 8-week-old C57BL/6 male mice (purchased from the National Laboratory Animal Center).
# The mice were subjected to a surgical operation to load electrodes on the skull to record brain waves. After a 7-day recovery period, the mice were reared for 2 weeks under a normal light-dark cycle of 12 hours: 12 hours, and the 24-hour brainwave changes of the mice were recorded as the basic point.
# During the feeding, the mice in the negative control group were given the same amount of sterile water, mice in the positive control group were given diazepam (2.5 mg/kg orally), and mice in the experimental group were given 200 mg/kg Sample 15B.
# The 24-hour brainwave changes of mice were recorded on Day 4 after the circadian disruption to analyze sleep cycle parameters of the time proportions (%) of the rapid eye movement (REM) and non-rapid eye movement (NREM), etc.
# [2] = system: OCLN; test: real-time quantitative PCR of tight junction gene expression in rhamnolipid-induced Caco-2 cells; assay type: cell-based, human; settings: positive control, 50 μM (18.6 μg/mL), rhamnolipid-induced Caco-2, vs negative control
# Source text: (§1) Total ribonucleic acid (total RNA) of cells was isolated by Total RNA Purification Kit (GeneMark, Taichung, Taiwan). Using Maxima First Strand cDNA Synthesis Kit (Thermo Fisher Scientific), according to the manufacturer's operating procedures, the obtained total ribonucleic acid subjected to a reverse transcription polymerase chain reaction to reverse-transcript messenger ribonucleic acid (mRNA) into cDNA. Next, the cDNA samples were subjected to a real-time quantitative polymerase chain reaction to determine the expression levels of CLDN3, OCLN and TJP1 mRNA.
# [3] = system: CLDN3; test: as above; assay type: cell-based, human; settings: positive control, 50 μM (18.6 μg/mL), rhamnolipid-induced Caco-2, vs negative control
# Source text: as §1
# [4] = system: TJP1; test: as above; assay type: cell-based, human; settings: positive control, 50 μM (18.6 μg/mL), rhamnolipid-induced Caco-2, vs negative control
# Source text: as §1
# [5] = system: DSS-induced mice; test: dextran sulfate sodium salt (DSS) induced abnormal intestinal permeability animal model, serum FITC-dextran; assay type: in vivo, C57BL/6 male mice; settings: positive control, 0.5% (v/v) DSS, 200 μM, 14 days, vs negative control
# Method: The animals used in this experiment were 5-6 week old C57BL/6 male mice (purchased from the National Laboratory Animal Center).
# The experiment was performed by an animal model of dextran sulfate sodium salt (DSS) induced abnormal intestinal permeability (Laroui H, Ingersoll S A, Liu H C, Baker M T, Ayyadurai S, et al. (2012) Dextran Sodium Sulfate (DSS) Induces Colitis in Mice by Forming Nano-Lipocomplexes with Medium-Chain-Length Fatty Acids in the Colon. PLOS ONE 7(3): e32084. doi:10.1371/journal.pone.0032084).
# The mice were divided into an untreated group (Naive), a negative control group (vehicle: water), a positive control group (5-aminosalicylic acid (5-ASA)) and 3 experiments groups (Sample 15B (Ganoderma extract+red jujube extract+lotus seed extract+lotus seed extract (the weight ratio of the respective herbal raw materials used to obtain the respective extracts is 3:1:1:1))). The mice in the untreated group were not treated in any way. […]
# The FITC-dextran content in mouse serum was measured with a multifunctional microplate spectrometer (Molecular Device, FlexStation® 3) as an indicator of intestinal permeability.
compound,measurement,setting,value
CN1C(=O)CN=C(c2ccccc2)c2cc(Cl)ccc21 [diazepam],time proportion of the non-rapid eye movement (NREM),[1],significantly increase the time proportion of the non-rapid eye movement
COc1ccc2cc3[n+](cc2c1OC)CCc1cc2c(cc1-3)OCO2 [berberine chloride],expression level of OCLN gene,[2],significantly increase
same,expression level of CLDN3 gene,[3],significantly increase
same,expression level of TJP1 gene,[4],significantly increase
Nc1ccc(O)c(C(=O)O)c1 [5-aminosalicylic acid],serum FITC-dextran concentration (intestinal permeability),[5],reduce the serum FITC-dextran concentration
